The results in this text go back to patent US11319299B2, “Substituted carboxamides as inhibitors of WDR5 protein-protein binding” (PROPELLON THERAPEUTICS INC., priority 2016, dated 2022).

The assay deals with WDR5 (Homo sapiens (Human), UniProt P61964). Put plainly: Surface Plasmon Resonance (SPR) assay, KD and residence time. Type of assay: binding. The note with it: surface plasmon resonance (SPR); read-out: WDR5 binding affinity (KD).

As for `C[C@@H]1CN(c2ncc(-c3cc(NC(=O)c4cn(C)c(=O)cc4C(F)F)c(N4C[C@@H](C)N(C)[C@@H](C)C4)cc3F)cn2)CCO1` [Example 461, 4-(difluoromethyl)-N-[4-fluoro-5-[2-[(2R)-2-methylmorpholin-4-yl]pyrimidin-5-yl]-2-[(3R,5S)-3,4,5-trimethylpiperazin-1-yl]phenyl]-1-methyl-6-oxopyridine-3-carboxamide], the Kd is 4.93 nM. Take `CC(C)N1CCN(c2ncc(-c3cc(NC(=O)c4ccc(F)cc4C(F)(F)F)c(N4C[C@@H](C)N(C)[C@@H](C)C4)cc3F)cn2)CC1` [Example 466, 4-fluoro-N-[4-fluoro-5-[2-(4-propan-2-ylpiperazin-1-yl)pyrimidin-5-yl]-2-[(3R,5S)-3,4,5-trimethylpiperazin-1-yl]phenyl]-2-(trifluoromethyl)benzamide]: the Kd was 2.28 nM. With `C[C@@H]1COCCN1c1ncc(-c2cc(NC(=O)c3c[nH]c(=O)cc3C(F)(F)F)c(N3CCN(C)[C@@H](C)C3)cc2F)cn1` [Example 468, N-[4-fluoro-2-[(3S)-3,4-dimethylpiperazin-1-yl]-5-[2-[(3R)-3-methylmorpholin-4-yl]pyrimidin-5-yl]phenyl]-6-oxo-4-(trifluoromethyl)-1H-pyridine-3-carboxamide] the figure was 2.28 nM; with `C[C@@H]1COCCN1c1ncc(-c2cc(NC(=O)c3c[nH]c(=O)cc3C(F)(F)F)c(N3C[C@@H](C)N(C)[C@@H](C)C3)cc2F)cn1` [Example 469, N-[4-fluoro-5-[2-[(3R)-3-methylmorpholin-4-yl]pyrimidin-5-yl]-2-[(3R,5S)-3,4,5-trimethylpiperazin-1-yl]phenyl]-6-oxo-4-(trifluoromethyl)-1H-pyridine-3-carboxamide], 5.64 nM; with `C[C@@H]1CN(c2cc(F)c(-c3cnc(N4CCOCC4)nc3)cc2NC(=O)c2c[nH]c(=O)cc2C(F)(F)F)C[C@H](C)[N+]1(C)C` [Example 479, N-[4-fluoro-5-(2-morpholin-4-ylpyrimidin-5-yl)-2-[(3R,5S)-3,4,4,5-tetramethylpiperazin-4-ium-1-yl]phenyl]-6-oxo-4-(trifluoromethyl)-1H-pyridine-3-carboxamide], 3.54 nM. With `C[C@@H]1CN(c2cc(F)c(-c3nc(C(=O)NCC4CC4)cs3)cc2NC(=O)c2c[nH]c(=O)cc2C(F)(F)F)C[C@H](C)N1C` [Example 482, N-(cyclopropylmethyl)-2-[2-fluoro-5-[[6-oxo-4-(trifluoromethyl)-1H-pyridine-3-carbonyl]amino]-4-[(3R,5S)-3,4,5-trimethylpiperazin-1-yl]phenyl]-1,3-thiazole-4-carboxamide] the figure was 1.75 nM; with `C[C@@H]1CN(c2cc(F)c(-c3nc(C(=O)NC4CCCCC4)cs3)cc2NC(=O)c2c[nH]c(=O)cc2C(F)(F)F)C[C@H](C)N1C` [Example 484, N-Cyclohexyl-2-[2-fluoro-5-[[6-oxo-4-(trifluoromethyl)-1H-pyridine-3-carbonyl]amino]-4-[(3R,5S)-3,4,5-trimethylpiperazin-1-yl]phenyl]-1,3-thiazole-4-carboxamide], 3.07 nM. For `C[C@@H]1CN(c2cc(F)c(-c3nc(C(=O)N(C)C4CCCCC4)cs3)cc2NC(=O)c2c[nH]c(=O)cc2C(F)(F)F)C[C@H](C)N1C` [Example 485, N-cyclohexyl-2-[2-fluoro-5-[[6-oxo-4-(trifluoromethyl)-1H-pyridine-3-carbonyl]amino]-4-[(3R,5S)-3,4,5-trimethylpiperazin-1-yl]phenyl]-N-methyl-1,3-thiazole-4-carboxamide] the value was 2.21 nM. `C[C@@H]1CN(c2cc(F)c(-c3nc(C(=O)N4CCOCC4)cs3)cc2NC(=O)c2c[nH]c(=O)cc2C(F)(F)F)C[C@H](C)N1C` [Example 486, N-[4-fluoro-5-[4-(morpholine-4-carbonyl)-1,3-thiazol-2-yl]-2-[(3R,5S)-3,4,5-trimethylpiperazin-1-yl]phenyl]-6-oxo-4-(trifluoromethyl)-1H-pyridine-3-carboxamide]: the Kd came to 2.44 nM.

Turning to `C[C@@H]1CN(c2cc(F)c(-c3nc(C(=O)N4CCN(C)CC4)cs3)cc2NC(=O)c2c[nH]c(=O)cc2C(F)(F)F)C[C@H](C)N1C` [Example 487, N-[4-fluoro-5-[4-(4-methylpiperazine-1-carbonyl)-1,3-thiazol-2-yl]-2-[(3R,5S)-3,4,5-trimethylpiperazin-1-yl]phenyl]-6-oxo-4-(trifluoromethyl)-1H-pyridine-3-carboxamide], the Kd came to 2.81 nM. For `C[C@@H]1CN(c2cc(F)c(C3=CCN(C(=O)OC4(C)COC4)CC3)cc2NC(=O)c2c[nH]c(=O)cc2C(F)(F)F)C[C@H](C)N1C` [Example 488, (3-methyloxetan-3-yl) 4-[2-fluoro-5-[[6-oxo-4-(trifluoromethyl)-1H-pyridine-3-carbonyl]amino]-4-[(3R,5S)-3,4,5-trimethylpiperazin-1-yl]phenyl]-3,6-dihydro-2H-pyridine-1-carboxylate] the value was 4.87 nM; for `C[C@@H]1CN(c2cc(F)c(C3=CCCN(C(=O)OC4(C)COC4)C3)cc2NC(=O)c2c[nH]c(=O)cc2C(F)(F)F)C[C@H](C)N1C` [Example 489, (3-methyloxetan-3-yl) 5-[2-fluoro-5-[[6-oxo-4-(trifluoromethyl)-1H-pyridine-3-carbonyl]amino]-4-[(3R,5S)-3,4,5-trimethylpiperazin-1-yl]phenyl]-3,6-dihydro-2H-pyridine-1-carboxylate], 2.74 nM; for `C[C@@H]1CN(c2cc(F)c(C3=CCN(C(=O)OC4(C)COC4)C3)cc2NC(=O)c2c[nH]c(=O)cc2C(F)(F)F)C[C@H](C)N1C` [Example 490, (3-methyloxetan-3-yl) 3-[2-fluoro-5-[[6-oxo-4-(trifluoromethyl)-1H-pyridine-3-carbonyl]amino]-4-[(3R,5S)-3,4,5-trimethylpiperazin-1-yl]phenyl]-2,5-dihydropyrrole-1-carboxylate], 3.24 nM. For `C[C@@H]1CN(c2cc(F)c(-c3ccc(CN4CCOCC4)s3)cc2NC(=O)c2c[nH]c(=O)cc2C(F)(F)F)C[C@H](C)N1C` [Example 491, N-[4-fluoro-5-[5-(morpholin-4-ylmethyl)thiophen-2-yl]-2-[(3R,5S)-3,4,5-trimethylpiperazin-1-yl]phenyl]-6-oxo-4-(trifluoromethyl)-1H-pyridine-3-carboxamide] the value was 3.59 nM; for `C[C@@H]1CN(c2cc(F)c(-c3cccs3)cc2NC(=O)c2c[nH]c(=O)cc2C(F)(F)F)C[C@H](C)N1C` [Example 492, N-[4-fluoro-2-[(3R,5S)-3,4,5-trimethylpiperazin-1-yl]-5-thiophen-2-ylphenyl]-6-oxo-4-(trifluoromethyl)-1H-pyridine-3-carboxamide], 3.35 nM; for `C[C@@H]1CN(c2cc(F)c(-c3ccsc3)cc2NC(=O)c2c[nH]c(=O)cc2C(F)(F)F)C[C@H](C)N1C` [Example 493, N-[4-fluoro-2-[(3R,5S)-3,4,5-trimethylpiperazin-1-yl]-5-thiophen-3-ylphenyl]-6-oxo-4-(trifluoromethyl)-1H-pyridine-3-carboxamide], 2.86 nM. For `C[C@@H]1CN(c2cc(F)c(-c3csc(CN4CCOCC4)c3)cc2NC(=O)c2c[nH]c(=O)cc2C(F)(F)F)C[C@H](C)N1C` [Example 494, N-[4-fluoro-5-[5-(morpholin-4-ylmethyl)thiophen-3-yl]-2-[(3R,5S)-3,4,5-trimethylpiperazin-1-yl]phenyl]-6-oxo-4-(trifluoromethyl)-1H-pyridine-3-carboxamide] the value was 3.01 nM; for `C[C@@H]1CN(c2cc(F)c(-c3ncc(C(=O)NCC4CC4)s3)cc2NC(=O)c2c[nH]c(=O)cc2C(F)(F)F)C[C@H](C)N1C` [Example 496, N-(cyclopropylmethyl)-2-[2-fluoro-5-[[6-oxo-4-(trifluoromethyl)-1H-pyridine-3-carbonyl]amino]-4-[(3R,5S)-3,4,5-trimethylpiperazin-1-yl]phenyl]-1,3-thiazole-5-carboxamide], 3.03 nM. As for `C[C@@H]1CN(c2cc(F)c(-c3ncc(C(=O)N(C)CC4CC4)s3)cc2NC(=O)c2c[nH]c(=O)cc2C(F)(F)F)C[C@H](C)N1C` [Example 497, N-(cyclopropylmethyl)-2-[2-fluoro-5-[[6-oxo-4-(trifluoromethyl)-1H-pyridine-3-carbonyl]amino]-4-[(3R,5S)-3,4,5-trimethylpiperazin-1-yl]phenyl]-N-methyl-1,3-thiazole-5-carboxamide], the dissociation constant (Kd) is 2.59 nM.

On to `C[C@@H]1CN(c2cc(F)c(-c3ncc(C(=O)NC4CCCCC4)s3)cc2NC(=O)c2c[nH]c(=O)cc2C(F)(F)F)C[C@H](C)N1C` [Example 498, N-cyclohexyl-2-[2-fluoro-5-[[6-oxo-4-(trifluoromethyl)-1H-pyridine-3-carbonyl]amino]-4-[(3R,5S)-3,4,5-trimethylpiperazin-1-yl]phenyl]-1,3-thiazole-5-carboxamide], for which the Kd is 1.47 nM. With `C[C@@H]1CN(c2cc(F)c(-c3ncc(C(=O)N(C)C4CCCCC4)s3)cc2NC(=O)c2c[nH]c(=O)cc2C(F)(F)F)C[C@H](C)N1C` [Example 499, N-cyclohexyl-2-[2-fluoro-5-[[6-oxo-4-(trifluoromethyl)-1H-pyridine-3-carbonyl]amino]-4-[(3R,5S)-3,4,5-trimethylpiperazin-1-yl]phenyl]-N-methyl-1,3-thiazole-5-carboxamide] the figure was 3.4 nM; with `C[C@@H]1CN(c2cc(F)c(-c3ncc(C(=O)N4CCOCC4)s3)cc2NC(=O)c2c[nH]c(=O)cc2C(F)(F)F)C[C@H](C)N1C` [Example 500, N-[4-fluoro-5-[5-(morpholine-4-carbonyl)-1,3-thiazol-2-yl]-2-[(3R,5S)-3,4,5-trimethylpiperazin-1-yl]phenyl]-6-oxo-4-(trifluoromethyl)-1H-pyridine-3-carboxamide], 1.85 nM; with `C[C@@H]1CN(c2cc(F)c(-c3ncc(C(=O)N4CCN(C)CC4)s3)cc2NC(=O)c2c[nH]c(=O)cc2C(F)(F)F)C[C@H](C)N1C` [Example 501, N-[4-fluoro-5-[5-(4-methylpiperazine-1-carbonyl)-1,3-thiazol-2-yl]-2-[(3R,5S)-3,4,5-trimethylpiperazin-1-yl]phenyl]-6-oxo-4-(trifluoromethyl)-1H-pyridine-3-carboxamide], 3.44 nM.
